Reference: ChEMBL document CHEMBL1201862, “PubChem BioAssay data set” (2004)
The source made the active and inactive calls.

Experiments:
[1] = inhibitors of HIV Env-driven cell fusion, dose response, cherry-pick (AID 652057); assay type: functional, cell-based
HepG2 = assay: HepG2 cell cytotoxicity, dose response, cytotoxicity control, cherry-picks, set 2 (AID 687002); assay type: functional, cell-based; conditions: Homo sapiens
HEK293 = assay: HEK293T cell cytotoxicity, dose response, cytotoxicity control, ATP luminescence, cherry-pick samples (AID 687005); assay type: functional, cell-based; conditions: Homo sapiens;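 note: cells exposed to compound for 48 hours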
[2] = inhibitors of clade B AD8 Env fusion, dose response, cell-based, cherry-pick (AID 652062); assay type: functional;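 note: luciferase signal from cell-cell fusion driven by HIV-1 clade B AD8 Env; potency is for inhibitors of fusion seen as a drop in luminescence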
[3] = HEK293 Cytotoxicity Assay Measured in Cell-Based System Using Plate Reader - 7071-01_Inhibitor_Dose_CherryPick_Activity_Set2.; assay type: functional
HeLa = assay: HeLa cell cytotoxicity, dose response, cytotoxicity control, ATP luminescence, cherry-pick samples (AID 687004); assay type: functional, cell-based; conditions: Homo sapiens
[4] = biological target: Metabotropic glutamate receptor 3 (Rattus norvegicus, UniProt P31422); assay: mGlu3 NAM potency via calcium readout, dose response, mGlu3 NAM project, TREx293 cells, Galpha15, calcium flux (AID 651840); assay type: functional
Chain of Metabotropic glutamate receptor 3 (P31422 whole entry): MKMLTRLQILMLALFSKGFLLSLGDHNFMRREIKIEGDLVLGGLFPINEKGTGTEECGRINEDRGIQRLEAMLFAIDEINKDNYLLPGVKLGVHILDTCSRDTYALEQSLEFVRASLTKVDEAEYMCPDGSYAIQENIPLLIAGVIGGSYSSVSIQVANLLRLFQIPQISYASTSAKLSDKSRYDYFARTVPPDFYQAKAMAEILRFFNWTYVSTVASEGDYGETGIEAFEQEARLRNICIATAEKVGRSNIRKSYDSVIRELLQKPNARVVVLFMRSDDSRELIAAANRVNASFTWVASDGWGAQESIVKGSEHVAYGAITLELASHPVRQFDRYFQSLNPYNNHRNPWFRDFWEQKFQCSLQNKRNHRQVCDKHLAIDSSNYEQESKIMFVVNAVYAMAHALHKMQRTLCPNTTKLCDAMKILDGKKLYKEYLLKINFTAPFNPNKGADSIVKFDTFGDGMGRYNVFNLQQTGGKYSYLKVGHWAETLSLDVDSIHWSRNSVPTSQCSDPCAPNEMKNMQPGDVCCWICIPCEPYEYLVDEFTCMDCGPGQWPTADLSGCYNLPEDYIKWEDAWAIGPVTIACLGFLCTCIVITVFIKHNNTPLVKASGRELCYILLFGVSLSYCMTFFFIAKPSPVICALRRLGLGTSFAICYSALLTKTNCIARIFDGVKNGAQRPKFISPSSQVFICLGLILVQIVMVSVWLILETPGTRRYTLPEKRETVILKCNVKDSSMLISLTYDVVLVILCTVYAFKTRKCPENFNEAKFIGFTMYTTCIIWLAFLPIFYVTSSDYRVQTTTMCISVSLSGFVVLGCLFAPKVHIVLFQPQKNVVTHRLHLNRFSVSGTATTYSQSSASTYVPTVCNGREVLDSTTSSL

[5] = HeLa cell cytotoxicity, dose response, cytotoxicity control, 24 h, plate reader, dry powder (AID 686928); assay type: functional, cell-based
[6] = biological target: Delta-type opioid receptor (Homo sapiens, UniProt P41143); assay: Late-stage results from the probe development effort to identify antagonists of OPRK1: fluorescence-based cell-based dose response OPRD1 counterscreen.; assay type: functional
Chain of Delta-type opioid receptor (P41143 whole entry): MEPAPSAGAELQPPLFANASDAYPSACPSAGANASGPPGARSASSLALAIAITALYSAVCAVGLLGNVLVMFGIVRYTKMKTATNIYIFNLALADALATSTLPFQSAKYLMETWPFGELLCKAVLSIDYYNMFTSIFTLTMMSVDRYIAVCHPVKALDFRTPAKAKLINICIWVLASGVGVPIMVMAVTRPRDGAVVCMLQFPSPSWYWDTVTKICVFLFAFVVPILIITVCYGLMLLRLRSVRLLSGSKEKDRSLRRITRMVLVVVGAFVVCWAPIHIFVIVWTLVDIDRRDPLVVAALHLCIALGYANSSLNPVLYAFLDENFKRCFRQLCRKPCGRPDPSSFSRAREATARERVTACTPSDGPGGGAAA

Mu-type opioid receptor = Mu-type opioid receptor (Homo sapiens, UniProt P35372); assay: Late-stage results from the probe development effort to identify antagonists of OPRK1: luminescence-based cell-based dose response OPRM1 counterscreen.; assay type: functional
Chain of Mu-type opioid receptor (P35372 whole entry): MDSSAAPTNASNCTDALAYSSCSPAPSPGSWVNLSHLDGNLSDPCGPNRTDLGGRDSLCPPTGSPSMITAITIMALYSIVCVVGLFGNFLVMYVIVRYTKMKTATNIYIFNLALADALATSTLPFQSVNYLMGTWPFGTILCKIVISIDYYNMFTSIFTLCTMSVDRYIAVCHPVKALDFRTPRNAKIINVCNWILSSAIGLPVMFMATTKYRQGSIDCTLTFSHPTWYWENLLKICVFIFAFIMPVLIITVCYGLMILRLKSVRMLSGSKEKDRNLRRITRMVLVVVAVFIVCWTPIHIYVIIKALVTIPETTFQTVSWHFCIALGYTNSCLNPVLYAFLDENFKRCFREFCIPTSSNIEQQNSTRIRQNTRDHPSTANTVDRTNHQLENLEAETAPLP

[7] = biological target: Potassium channel subfamily K member 9 (Homo sapiens, UniProt Q9NPC2); assay: TASK3 (KCNK9) channel inhibitors, thallium flux, SAR follow-up, selectivity assay for TASK1 inhibitor project, cell-based, FluxOR thallium flux, concentration-response (AID 652211); assay type: functional;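 note: potency is for inhibitors of the channel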
Chain of Potassium channel subfamily K member 9 (Q9NPC2 whole entry, the tested form may be a part): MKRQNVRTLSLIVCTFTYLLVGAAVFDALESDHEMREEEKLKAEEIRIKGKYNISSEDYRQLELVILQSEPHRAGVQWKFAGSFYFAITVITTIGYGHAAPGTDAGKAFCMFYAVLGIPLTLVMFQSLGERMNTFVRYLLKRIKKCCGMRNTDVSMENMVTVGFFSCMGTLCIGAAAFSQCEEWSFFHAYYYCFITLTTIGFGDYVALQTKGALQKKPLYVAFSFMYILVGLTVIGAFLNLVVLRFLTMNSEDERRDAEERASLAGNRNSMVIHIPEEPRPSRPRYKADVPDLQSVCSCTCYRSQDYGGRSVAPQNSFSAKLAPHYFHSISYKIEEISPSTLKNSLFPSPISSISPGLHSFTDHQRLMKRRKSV

[8] = biological target: Potassium channel subfamily K member 3 (Rattus norvegicus, UniProt O54912); assay: SAR analysis for the identification of selective inhibitors of the two-pore domain potassium channel TASK1(KCNK3):Automated Electrophysiology.; assay type: functional
Chain of Potassium channel subfamily K member 3 (Rattus norvegicus, UniProt O54912) (O54912 whole entry, the tested form may be a part): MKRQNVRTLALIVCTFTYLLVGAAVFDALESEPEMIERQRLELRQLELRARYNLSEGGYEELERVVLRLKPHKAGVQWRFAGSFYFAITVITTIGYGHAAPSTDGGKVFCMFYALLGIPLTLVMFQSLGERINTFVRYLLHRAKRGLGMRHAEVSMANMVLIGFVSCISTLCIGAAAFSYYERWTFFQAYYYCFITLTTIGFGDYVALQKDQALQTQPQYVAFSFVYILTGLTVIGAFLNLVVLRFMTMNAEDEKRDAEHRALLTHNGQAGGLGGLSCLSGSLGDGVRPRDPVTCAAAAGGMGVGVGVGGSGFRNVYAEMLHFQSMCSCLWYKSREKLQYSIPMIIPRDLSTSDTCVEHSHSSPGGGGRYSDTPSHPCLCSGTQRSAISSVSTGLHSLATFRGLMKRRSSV

[9] = biological target: Potassium channel subfamily K member 3 (Homo sapiens, UniProt O14649); assay: TASK1 (KCNK3) potassium channel inhibitors, SAR follow-up, CHO cells, FluxOR thallium flux (AID 652212); assay type: functional
Chain of Potassium channel subfamily K member 3 (Homo sapiens, UniProt O14649) (O14649 whole entry): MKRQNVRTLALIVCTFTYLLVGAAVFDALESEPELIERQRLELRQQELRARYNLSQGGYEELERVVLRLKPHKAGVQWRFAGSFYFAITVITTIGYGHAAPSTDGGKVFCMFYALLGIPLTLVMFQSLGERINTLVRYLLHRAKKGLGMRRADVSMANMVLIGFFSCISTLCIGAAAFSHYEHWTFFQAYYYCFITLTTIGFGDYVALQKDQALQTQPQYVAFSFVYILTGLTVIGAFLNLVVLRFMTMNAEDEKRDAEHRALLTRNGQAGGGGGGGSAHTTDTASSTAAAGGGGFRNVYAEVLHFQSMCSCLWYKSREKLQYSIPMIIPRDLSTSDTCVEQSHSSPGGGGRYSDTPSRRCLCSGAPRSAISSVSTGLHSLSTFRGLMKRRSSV

[10] = T. cruzi growth inhibition in host cells, dose response, cell-based, plate reader, dry powder, set 2 (AID 652275); assay type: functional
[11] = A Cell-Based Confirmatory Screen for Compounds that Inhibit VEEV, TC-83 (7).; assay type: functional
[12] = Counterscreen for […] of the human trace amine associated receptor 1 (TAAR1): Fluorescence-based cell-based high throughput dose response assay to identify nonselective Ga16 agonists.; assay type: functional
[13] = biological target: T1, Trace amine-associated receptor 1 (Homo sapiens, UniProt Q96RJ0); assay: Fluorescence-based cell-based high throughput dose response assay to identify antagonists of the human trace amine associated receptor 1 (TAAR1).; assay type: functional
T1 sequence (Q96RJ0 whole entry): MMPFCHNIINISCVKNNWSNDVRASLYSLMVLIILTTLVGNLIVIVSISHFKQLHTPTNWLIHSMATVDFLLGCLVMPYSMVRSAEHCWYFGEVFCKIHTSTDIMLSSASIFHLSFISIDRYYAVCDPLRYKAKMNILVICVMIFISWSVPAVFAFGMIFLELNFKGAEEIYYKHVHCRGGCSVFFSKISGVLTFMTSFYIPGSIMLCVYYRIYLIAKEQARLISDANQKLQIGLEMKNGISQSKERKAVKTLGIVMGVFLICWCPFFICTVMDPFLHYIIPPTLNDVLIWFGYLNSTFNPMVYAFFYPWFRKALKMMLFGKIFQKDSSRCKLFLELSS

[14] = Counterscreen for antagonists of the human trace amine associated receptor 1 (hTAAR1): Fluorescence-based cell-based high throughput dose response assay to identify nonselective Ga16 antagonists.; assay type: functional
[15] = biological target: T1, Trace amine-associated receptor 1; assay: Counterscreen for antagonists of the human trace amine associated receptor 1 (hTAAR1): Fluorescence-based cell-based high throughput dose response assay to identify TAAR1 Agonists.; assay type: functional

C[C@H](CO)N1C[C@H](C)[C@H](CN(C)Cc2ccccc2F)Oc2cc(C3=CCCC3)ccc2S1(=O)=O
AC50 [1]: 22.8 µM (active)
AC50 (HepG2): 19.4 µM (active)
AC50 (HEK293): 18.8 µM (active)
AC50 [2]: 24.4 µM (active)
AC50 [3]: 18.8 µM (active)

Cc1noc(C)c1NC(=O)Nc1ccc2c(c1)C(=O)N(C)[C@@H]1CC[C@H](CC(=O)N[C@H]3CCN(Cc4ccccc4)C3)O[C@@H]1CO2
AC50 (HeLa): > 47 µM (inactive)
AC50 (HEK293): 29.7 µM (active)
AC50 [3]: 29.7 µM (active)

COc1ccc(C#Cc2ccc(C(=O)N3CCCC(O)(Cc4ccccc4)C3)cc2)cc1 (stereo unspecified)
IC50 [4]: 8.87 µM (active)

O=C(Nc1nnc(-c2ccc3c(c2)OCCO3)o1)C(F)(F)c1ccccc1
AC50 [5]: > 200 µM (inactive)

COC(=O)c1cc(Br)cnc1N1CCC(NC2CCCCC2)C1 (stereo unspecified)
IC50 [6]: > 50 µM (inactive)
IC50 (Mu-type opioid receptor): 20 µM (inactive)

CCOc1ccccc1NC(=O)c1cccc(NC(=O)c2cccc(Cl)c2)c1
IC50 [7]: 1.84 µM (active)
IC50 [8]: 2.86 µM (active)
IC50 [9]: 0.039 µM (active)

O=C(CN1CCOCC1)N1CCCCN2[C@@H](CO)[C@H](c3ccc(Br)cc3)[C@@H]2C1
AC50 [10]: 7.96 µM (active)

CN1CCN(C)/C(=N/c2ccc(C#N)cc2C(=O)Nc2ccccc2)C1
IC50 [11]: 0.38 µM (active)

Cc1ccc(/C=N/NC(=O)c2ccccc2OCc2cccc(Br)c2)o1
EC50 [12]: > 29.9 µM (inactive)
IC50 [13]: 3.69 µM (active)
IC50 [14]: > 29.9 µM (inactive)
EC50 [15]: > 29.9 µM (inactive)
